Measurements from PubChem BioAssay AID2060493 (Molecular Pharmacology Branch, DTP, NCI, 2025).
One block for each compound: values may come before it.

Tested on: 616215-338-R-J1-PDC tumor spheroids, viability
Experiment: Anticancer human tumor 616215-338-R-J1-PDC patient-derived colon adenocarcinoma cell line growth inhibition [GQUAD]
Conditions: spheroids with HUVEC and MSC; for IC50: curve of first compound; for viability, T/C: stronger effect = lower value
Outline: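 Viability of tumor cells grown as complex spheroids with endothelial and stromal cells, exposed to drug combinations. Top concentration at or near clinical Cmax (else 10 microM), diluted in half-log increments.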

[1] = second compound 0.0316 µM, first compound 0.0316 µM
[2] = second compound 0.0316 µM, first compound 0.1 µM
[3] = second compound 0.0316 µM, first compound 0.316 µM
[4] = second compound 0.0316 µM, first compound 1 µM
[5] = second compound 0.0316 µM, first compound 3.16 µM
[6] = second compound 0.0316 µM, first compound 10 µM
[7] = second compound 0.1 µM, first compound 0.0316 µM
[8] = second compound 0.1 µM, first compound 0.1 µM
[9] = second compound 0.1 µM, first compound 0.316 µM
[10] = second compound 0.1 µM, first compound 1 µM
[11] = second compound 0.1 µM, first compound 3.16 µM
[12] = second compound 0.1 µM, first compound 10 µM
[13] = second compound 0.316 µM, first compound 0.0316 µM
[14] = second compound 0.316 µM, first compound 0.1 µM
[15] = second compound 0.316 µM, first compound 0.316 µM
[16] = second compound 0.316 µM, first compound 1 µM
[17] = second compound 0.316 µM, first compound 3.16 µM
[18] = second compound 0.316 µM, first compound 10 µM
[19] = second compound 1 µM, first compound 0.0316 µM
[20] = second compound 1 µM, first compound 0.1 µM
[21] = second compound 1 µM, first compound 0.316 µM
[22] = second compound 1 µM, first compound 1 µM
[23] = second compound 1 µM, first compound 3.16 µM
[24] = second compound 1 µM, first compound 10 µM
[25] = second compound 3.16 µM, first compound 0.0316 µM
[26] = second compound 3.16 µM, first compound 0.1 µM
[27] = second compound 3.16 µM, first compound 0.316 µM
[28] = second compound 3.16 µM, first compound 1 µM
[29] = second compound 3.16 µM, first compound 3.16 µM
[30] = second compound 3.16 µM, first compound 10 µM
[31] = second compound 10 µM, first compound 0.0316 µM
[32] = second compound 10 µM, first compound 0.1 µM
[33] = second compound 10 µM, first compound 0.316 µM
[34] = second compound 10 µM, first compound 1 µM
[35] = second compound 10 µM, first compound 3.16 µM
[36] = second compound 10 µM, first compound 10 µM
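Further: spheroids exposed to agents for 7 days before readout.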
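Wherever viability, T/C is given: percent viability relative to DMSO vehicle control wells taken as 100%.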

IC50 (second compound 0.0316 µM): 2380 nM | IC50 (second compound 0.1 µM): 1070 nM | IC50 (second compound 0.316 µM): 45.3 nM | IC50 (second compound 1 µM): < 31.6 nM | IC50 (second compound 3.16 µM): < 31.6 nM | IC50 (second compound 10 µM): < 31.6 nM
Compound: CC1COCCN1c1cc(C2(S(C)(=N)=O)CC2)nc(-c2ccnc3[nH]ccc23)n1 (stereo unspecified) + Cc1cnc(CNC(=O)c2c(=O)c3ccc(N4CCCN(C)CC4)nc3n3c2sc2ccccc23)cn1
viability, T/C [1]: 97.6% | viability, T/C [2]: 97.4% | viability, T/C [3]: 94.5% | viability, T/C [4]: 83.7% | viability, T/C [5]: 38.8% | viability, T/C [6]: 31.4% | viability, T/C [7]: 72.5% | viability, T/C [8]: 73.4% | viability, T/C [9]: 70% | viability, T/C [10]: 51.2% | viability, T/C [11]: 33.6% | viability, T/C [12]: 32.6% | viability, T/C [13]: 53.5% | viability, T/C [14]: 43.2% | viability, T/C [15]: 44.1% | viability, T/C [16]: 42.1% | viability, T/C [17]: 33.7% | viability, T/C [18]: 28.2% | viability, T/C [19]: 38.3% | viability, T/C [20]: 40.9% | viability, T/C [21]: 32% | viability, T/C [22]: 26.7% | viability, T/C [23]: 27.7% | viability, T/C [24]: 21.5% | viability, T/C [25]: 21.9% | viability, T/C [26]: 30.2% | viability, T/C [27]: 31.6% | viability, T/C [28]: 30.2% | viability, T/C [29]: 40.4% | viability, T/C [30]: 30% | viability, T/C [31]: 25.1% | viability, T/C [32]: 27.1% | viability, T/C [33]: 29.9% | viability, T/C [34]: 22.4% | viability, T/C [35]: 19.6% | viability, T/C [36]: 17.5%

Compound: O=C(c1cc(Cc2n[nH]c(=O)c3ccccc23)ccc1F)N1CCN(C(=O)C2CC2)CC1 + CN(C)c1ccc(Nc2c3ccc(NC(=O)CCN4CCCC4)cc3nc3cc(NC(=O)CCN4CCCC4)ccc23)cc1
IC50 (second compound 0.0316 µM): > 10000 nM | IC50 (second compound 0.1 µM): > 10000 nM | IC50 (second compound 0.316 µM): > 10000 nM | IC50 (second compound 1 µM): > 10000 nM | IC50 (second compound 3.16 µM): > 10000 nM | IC50 (second compound 10 µM): > 10000 nM | viability, T/C [1]: 100% | viability, T/C [2]: 95.7% | viability, T/C [3]: 103% | viability, T/C [4]: 111% | viability, T/C [5]: 110% | viability, T/C [6]: 71.9% | viability, T/C [7]: 103% | viability, T/C [8]: 102% | viability, T/C [9]: 104% | viability, T/C [10]: 103% | viability, T/C [11]: 111% | viability, T/C [12]: 74.8% | viability, T/C [13]: 104% | viability, T/C [14]: 114% | viability, T/C [15]: 112% | viability, T/C [16]: 106% | viability, T/C [17]: 99.3% | viability, T/C [18]: 68.6% | viability, T/C [19]: 108% | viability, T/C [20]: 100% | viability, T/C [21]: 96.9% | viability, T/C [22]: 97.3% | viability, T/C [23]: 104% | viability, T/C [24]: 69% | viability, T/C [25]: 112% | viability, T/C [26]: 97.8% | viability, T/C [27]: 98.8% | viability, T/C [28]: 109% | viability, T/C [29]: 105% | viability, T/C [30]: 57.4% | viability, T/C [31]: 96.6% | viability, T/C [32]: 82.9% | viability, T/C [33]: 99.3% | viability, T/C [34]: 99.6% | viability, T/C [35]: 67% | viability, T/C [36]: 54.9%

Compound: CC[C@@]1(O)C(=O)OCc2c1cc1n(c2=O)Cc2cc3c(CN(C)C)c(O)ccc3nc2-1 + Cc1[nH]c2ccc(F)cc2c1-c1nc2c3cccnc3c3ncccc3c2[nH]1
IC50 (second compound 0.0316 µM): 302 nM | IC50 (second compound 0.1 µM): > 316 nM | IC50 (second compound 0.316 µM): 232 nM | IC50 (second compound 1 µM): > 316 nM | IC50 (second compound 3.16 µM): 262 nM | IC50 (second compound 10 µM): 186 nM | viability, T/C (second compound 0.0316 µM, first compound 0.000999 µM): 102% | viability, T/C (second compound 0.0316 µM, first compound 0.00316 µM): 99.7% | viability, T/C (second compound 0.0316 µM, first compound 0.00999 µM): 103% | viability, T/C [1]: 99.4% | viability, T/C (second compound 0.0316 µM, first compound 0.0999 µM): 90.5% | viability, T/C [3]: 48.2% | viability, T/C (second compound 0.1 µM, first compound 0.000999 µM): 105% | viability, T/C (second compound 0.1 µM, first compound 0.00316 µM): 111% | viability, T/C (second compound 0.1 µM, first compound 0.00999 µM): 97% | viability, T/C [7]: 101% | viability, T/C (second compound 0.1 µM, first compound 0.0999 µM): 89.5% | viability, T/C [9]: 55.2% | viability, T/C (second compound 0.316 µM, first compound 0.000999 µM): 88.9% | viability, T/C (second compound 0.316 µM, first compound 0.00316 µM): 109% | viability, T/C (second compound 0.316 µM, first compound 0.00999 µM): 100% | viability, T/C [13]: 101% | viability, T/C (second compound 0.316 µM, first compound 0.0999 µM): 79.8% | viability, T/C [15]: 38.9% | viability, T/C (second compound 1 µM, first compound 0.000999 µM): 93% | viability, T/C (second compound 1 µM, first compound 0.00316 µM): 108% | viability, T/C (second compound 1 µM, first compound 0.00999 µM): 95.3% | viability, T/C [19]: 97.7% | viability, T/C (second compound 1 µM, first compound 0.0999 µM): 90.9% | viability, T/C [21]: 51.1% | viability, T/C (second compound 3.16 µM, first compound 0.000999 µM): 88.8% | viability, T/C (second compound 3.16 µM, first compound 0.00316 µM): 89.9% | viability, T/C (second compound 3.16 µM, first compound 0.00999 µM): 92% | viability, T/C [25]: 95.5% | viability, T/C (second compound 3.16 µM, first compound 0.0999 µM): 87% | viability, T/C [27]: 42.6% | viability, T/C (second compound 10 µM, first compound 0.000999 µM): 98.2% | viability, T/C (second compound 10 µM, first compound 0.00316 µM): 110% | viability, T/C (second compound 10 µM, first compound 0.00999 µM): 87.8% | viability, T/C [31]: 94.5% | viability, T/C (second compound 10 µM, first compound 0.0999 µM): 71.4% | viability, T/C [33]: 31.4%
